Experimental data as given in US20260217662A1, “PROCESSES FOR PREPARING TRIAZOLE GLYCOLATE OXIDASE INHIBITORS” (CANTERO THERAPEUTICS, INC., priority 2020, published 2026).

Biological target: T1, human glycolate oxidase (hGO) (Homo sapiens, UniProt Q9UJM8)
T1 construct: His-tag (6 histidines) (N); made in house; host or cells: E. coli BL21 (DE3)
T1 sequence (Q9UJM8 1-370): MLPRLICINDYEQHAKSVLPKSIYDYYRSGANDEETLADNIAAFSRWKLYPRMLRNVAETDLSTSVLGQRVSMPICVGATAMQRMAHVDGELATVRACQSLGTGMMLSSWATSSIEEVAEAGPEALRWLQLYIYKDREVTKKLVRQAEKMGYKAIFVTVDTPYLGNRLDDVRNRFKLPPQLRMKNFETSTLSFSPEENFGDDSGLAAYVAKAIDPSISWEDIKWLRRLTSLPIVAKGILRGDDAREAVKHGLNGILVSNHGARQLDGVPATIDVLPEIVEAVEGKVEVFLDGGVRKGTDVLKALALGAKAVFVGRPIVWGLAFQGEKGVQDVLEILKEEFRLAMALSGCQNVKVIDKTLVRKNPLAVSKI
Assay: In vitro inhibition of human glycolate oxidase (enzymatic assay, coupled HRP/Trinder reaction)
Type: biochemical
Conditions: recombinant hGO, 40 mM glycolic acid, pH 7, activity at 1 minute, read at 515 nm
From the text: The catalytic reactions used for assaying glycolate oxidase activity in the presence of compounds according to the present disclosure are outlined in FIG. 9. Glycolate oxidase (GO)-catalyzed conversion of glycolate to glyoxylate (top reaction), with the concomitant reduction of the cofactor flavin mononucleotide (FMN), uses molecular oxygen (O2) for recovering its oxidative state, releasing hydrogen peroxide (H2O2). The Trinder reaction (bottom reaction), in which horseradish peroxidase (HRP) uses hydrogen peroxide, 4-aminoantipyrine and a phenol derivative (sulphonated DCIP) to generate a quinoneimine dye that is spectrophotometrically measured.
Human glycolate oxidase (hGO) expression: BL21 (DE3) E. coli transformed with recombinant pET-15b expression vector with the N-terminal His-tag human Hao1 cDNA was grown in LB medium in the presence of 0.1 mg/ml ampicillin. […] Protein were quantified by the bicinchoninic acid (BCA) assay.
Enzymatic assays: Enzymatic activity of hGO was determined in the presence of glycolate as substrate (40 mM glycolic acid) and phosphate buffer (50 mM KPO4, 0.1 mM EDTA, pH 7). The production of glyoxylate was indirectly measured by the quantification of hydrogen peroxide formed during the first oxidation reaction. […] Enzymatic activity was calculated at 1 minute after initiation of the Trinder reaction.

Compound	IC50 [nM]
O=C(O)c1nn[nH]c1Oc1ccc(-c2ccc(C3CCC(F)(F)C3)cc2)cc1 (centres unmarked) [Ib-1, 5-((4′-(3,3-difluorocyclopentyl)-[1,1′-biphenyl]-4-yl)oxy)-1H-1,2,3-triazole-4-carboxylic acid]	< 100
O=C(O)c1nn[nH]c1Oc1ccc(-c2ccc(C3CCC(F)(F)CC3)cc2)cc1 [Ic-1, 5-((4′-(4,4-difluorocyclohexyl)-[1,1′-biphenyl]-4-yl)oxy)-1H-1,2,3-triazole-4-carboxylic acid]	< 100
